Experimental data as given in US10724099B2, “Multiplex methods to assay mixed cell populations simultaneously” (The Broad Institute, Inc., priority 2012, dated 2020).
pIC50: −log10 of the molar value.

Experiments:
AURKA = target: T1, AURKA (Homo sapiens, UniProt O14965); test: DiscoveRx KinomeScan binding
T1 construct: purchased DiscoveRx (KINOMEscan scanEDGE panel)

ERBB2 = target: T2, ERBB2 (Homo sapiens, UniProt P04626); test: DiscoveRx KinomeScan binding
T2 construct: purchased DiscoveRx scanEDGE panel

FAK = target: T3, FAK (Homo sapiens, UniProt Q05397); test: DiscoveRx KinomeScan binding; conditions: Entrez PTK2
T3 construct: purchased DiscoveRx scanEDGE panel

FGFR2 = target: T4, FGFR2 (Homo sapiens, UniProt P21802); test: DiscoveRx KinomeScan binding
T4 construct: purchased DiscoveRx scanEDGE panel

MEK1 = target: T5, MEK1 (Homo sapiens, UniProt Q02750); test: DiscoveRx KinomeScan binding; conditions: Entrez MAP2K1
T5 construct: purchased DiscoveRx scanEDGE panel (KinomeScan)

INSR = target: T6, INSR (Homo sapiens, UniProt P06213); test: DiscoveRx KinomeScan binding
T6 construct: purchased DiscoveRx scanEDGE panel

KIT = target: T7, KIT (Homo sapiens, UniProt P10721); test: DiscoveRx KinomeScan binding
T7 construct: purchased DiscoveRx scanEDGE panel (KinomeScan)

BTK = target: T8, BTK (Homo sapiens, UniProt Q06187); test: DiscoveRx KinomeScan binding
T8 construct: purchased DiscoveRx (KINOMEscan scanEDGE panel)

[1] = target: T9, ABL1(T315I)---phosphorylated (Homo sapiens, UniProt P00519, T315I); test: DiscoveRx KinomeScan binding; conditions: Entrez ABL1
T9 construct: purchased DiscoveRx (KINOMEscan scanEDGE panel)

PAK2 = target: T10, PAK2 (Homo sapiens, UniProt Q13177); test: DiscoveRx KinomeScan binding
T10 construct: purchased DiscoveRx scanEDGE panel (KinomeScan)

[2] = target: T11, full-length human aurora-B (Homo sapiens, UniProt Q96GD4); test: In vitro kinase assay (EMD Millipore KinaseProfiler); assay type: biochemical; conditions: 10 μM γ-33P-ATP, 30 μM AKRRRLSSLRA, 8 doses in duplicate
T11 construct: purchased EMD Millipore KinaseProfiler service
T11 sequence (Q96GD4 whole entry): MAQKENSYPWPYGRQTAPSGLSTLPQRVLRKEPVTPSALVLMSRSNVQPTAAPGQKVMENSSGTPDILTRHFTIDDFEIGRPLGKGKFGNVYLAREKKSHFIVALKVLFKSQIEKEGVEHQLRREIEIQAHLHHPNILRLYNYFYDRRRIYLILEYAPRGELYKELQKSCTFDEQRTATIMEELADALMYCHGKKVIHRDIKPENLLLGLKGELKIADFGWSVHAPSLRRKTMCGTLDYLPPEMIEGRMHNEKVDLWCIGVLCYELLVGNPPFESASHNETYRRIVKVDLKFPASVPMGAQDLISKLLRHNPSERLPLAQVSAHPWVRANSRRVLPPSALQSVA
Procedure: (§1) In vitro kinase inhibition assays were then performed as follows. Incorporation of radioactivity from 10 μM γ-^33P-ATP was measured across 8 doses in duplicate by the EMD Millipore KinaseProfiler service (Billerica, Mass.) under published standard conditions with […]. Full-length human aurora-A was assayed with 200 μM LRRASLG (Kemptide); full-length human aurora-B with 30 μM […] (SEQ ID NO:5); and full-length human aurora-C with 30 μM […] (SEQ ID NO:6). IC50 values were modeled using least-squares and variable slope with Prism 6.0 software (GraphPad, San Diego, Calif.).

[3] = target: T12, full-length human aurora-C (Homo sapiens, UniProt Q9UQB9); test: as above; assay type: biochemical; conditions: 10 μM γ-33P-ATP, 30 μM AKRRRLSSLRA, 8 doses in duplicate
T12 construct: purchased EMD Millipore KinaseProfiler service
T12 sequence (Q9UQB9 whole entry): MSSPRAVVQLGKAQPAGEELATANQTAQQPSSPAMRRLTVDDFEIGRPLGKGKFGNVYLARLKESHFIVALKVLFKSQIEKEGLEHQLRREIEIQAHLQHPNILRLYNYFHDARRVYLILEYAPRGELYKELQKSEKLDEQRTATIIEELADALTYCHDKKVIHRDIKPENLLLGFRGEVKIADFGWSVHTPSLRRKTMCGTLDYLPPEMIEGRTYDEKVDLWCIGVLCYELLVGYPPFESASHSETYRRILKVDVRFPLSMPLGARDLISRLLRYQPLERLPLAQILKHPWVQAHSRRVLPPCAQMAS
Procedure: as §1

[4] = target: T13, full-length human aurora-A (Homo sapiens, UniProt O14965); test: as above; assay type: biochemical; conditions: 10 μM γ-33P-ATP, 200 μM Kemptide, 8 doses in duplicate
T13 construct: Full-length human aurora-A was assayed; purchased EMD Millipore KinaseProfiler service
T13 sequence (O14965 whole entry): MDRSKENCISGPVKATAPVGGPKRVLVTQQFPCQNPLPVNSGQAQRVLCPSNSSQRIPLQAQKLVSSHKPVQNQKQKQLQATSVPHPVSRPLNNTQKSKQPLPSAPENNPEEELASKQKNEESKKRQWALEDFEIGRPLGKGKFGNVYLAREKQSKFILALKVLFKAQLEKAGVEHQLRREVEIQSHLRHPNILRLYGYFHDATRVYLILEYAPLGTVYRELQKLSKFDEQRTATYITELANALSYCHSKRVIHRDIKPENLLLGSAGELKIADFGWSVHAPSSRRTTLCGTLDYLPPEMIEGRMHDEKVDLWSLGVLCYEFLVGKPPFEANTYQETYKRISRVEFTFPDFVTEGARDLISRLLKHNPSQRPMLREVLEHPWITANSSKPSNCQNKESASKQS
Procedure: as §1

ERBB4 = target: T14, ERBB4 (Homo sapiens, UniProt Q15303); test: DiscoveRx KinomeScan binding
T14 construct: purchased DiscoveRx scanEDGE panel
T14 sequence (Q15303 26-1308): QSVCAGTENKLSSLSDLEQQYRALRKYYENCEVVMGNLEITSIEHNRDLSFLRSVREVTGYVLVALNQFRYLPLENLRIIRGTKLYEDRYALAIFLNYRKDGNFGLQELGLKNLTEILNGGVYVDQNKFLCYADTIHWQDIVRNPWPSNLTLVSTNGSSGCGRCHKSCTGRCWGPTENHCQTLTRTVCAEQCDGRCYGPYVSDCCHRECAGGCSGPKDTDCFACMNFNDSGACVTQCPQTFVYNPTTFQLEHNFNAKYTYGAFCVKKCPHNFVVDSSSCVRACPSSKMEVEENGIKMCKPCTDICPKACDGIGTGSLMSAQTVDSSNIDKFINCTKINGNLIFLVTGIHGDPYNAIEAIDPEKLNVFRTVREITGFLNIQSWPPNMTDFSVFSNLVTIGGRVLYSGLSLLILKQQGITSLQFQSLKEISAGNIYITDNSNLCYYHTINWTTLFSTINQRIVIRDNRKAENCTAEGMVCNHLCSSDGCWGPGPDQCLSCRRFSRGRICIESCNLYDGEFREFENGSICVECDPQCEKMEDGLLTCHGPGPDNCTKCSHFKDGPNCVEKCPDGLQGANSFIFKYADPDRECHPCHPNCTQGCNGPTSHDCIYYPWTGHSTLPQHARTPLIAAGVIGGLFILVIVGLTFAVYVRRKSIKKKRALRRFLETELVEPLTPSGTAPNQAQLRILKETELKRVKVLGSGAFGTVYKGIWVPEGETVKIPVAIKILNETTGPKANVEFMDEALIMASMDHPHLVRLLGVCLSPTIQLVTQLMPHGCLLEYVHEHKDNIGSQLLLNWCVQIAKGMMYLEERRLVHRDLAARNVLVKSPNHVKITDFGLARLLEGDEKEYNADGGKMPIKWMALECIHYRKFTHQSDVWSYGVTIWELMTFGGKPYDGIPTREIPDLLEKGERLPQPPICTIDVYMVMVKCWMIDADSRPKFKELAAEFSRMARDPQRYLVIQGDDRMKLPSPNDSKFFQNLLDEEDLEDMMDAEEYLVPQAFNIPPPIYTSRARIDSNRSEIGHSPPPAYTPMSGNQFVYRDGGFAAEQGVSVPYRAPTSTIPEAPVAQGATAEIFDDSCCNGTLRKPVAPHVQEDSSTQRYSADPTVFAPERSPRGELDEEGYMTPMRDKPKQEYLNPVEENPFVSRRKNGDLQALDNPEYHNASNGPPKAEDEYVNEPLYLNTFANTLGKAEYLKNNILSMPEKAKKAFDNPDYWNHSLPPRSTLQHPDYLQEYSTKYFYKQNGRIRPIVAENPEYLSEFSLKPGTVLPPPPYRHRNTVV

CHEK1 = target: T15, CHEK1 (Homo sapiens, UniProt O14757); test: DiscoveRx KinomeScan binding
T15 construct: purchased DiscoveRx scanEDGE panel

ROCK2 = target: T16, ROCK2 (Homo sapiens, UniProt O75116); test: DiscoveRx KinomeScan binding
T16 construct: purchased DiscoveRx scanEDGE panel

MKNK2 = target: T17, MKNK2 (Homo sapiens, UniProt Q9HBH9); test: DiscoveRx KinomeScan binding
T17 construct: purchased DiscoveRx scanEDGE panel (KinomeScan)

PDGFRA = target: T18, PDGFRA (Homo sapiens, UniProt P16234); test: DiscoveRx KinomeScan binding
T18 construct: purchased DiscoveRx scanEDGE panel (KinomeScan)
T18 sequence (P16234 24-1089): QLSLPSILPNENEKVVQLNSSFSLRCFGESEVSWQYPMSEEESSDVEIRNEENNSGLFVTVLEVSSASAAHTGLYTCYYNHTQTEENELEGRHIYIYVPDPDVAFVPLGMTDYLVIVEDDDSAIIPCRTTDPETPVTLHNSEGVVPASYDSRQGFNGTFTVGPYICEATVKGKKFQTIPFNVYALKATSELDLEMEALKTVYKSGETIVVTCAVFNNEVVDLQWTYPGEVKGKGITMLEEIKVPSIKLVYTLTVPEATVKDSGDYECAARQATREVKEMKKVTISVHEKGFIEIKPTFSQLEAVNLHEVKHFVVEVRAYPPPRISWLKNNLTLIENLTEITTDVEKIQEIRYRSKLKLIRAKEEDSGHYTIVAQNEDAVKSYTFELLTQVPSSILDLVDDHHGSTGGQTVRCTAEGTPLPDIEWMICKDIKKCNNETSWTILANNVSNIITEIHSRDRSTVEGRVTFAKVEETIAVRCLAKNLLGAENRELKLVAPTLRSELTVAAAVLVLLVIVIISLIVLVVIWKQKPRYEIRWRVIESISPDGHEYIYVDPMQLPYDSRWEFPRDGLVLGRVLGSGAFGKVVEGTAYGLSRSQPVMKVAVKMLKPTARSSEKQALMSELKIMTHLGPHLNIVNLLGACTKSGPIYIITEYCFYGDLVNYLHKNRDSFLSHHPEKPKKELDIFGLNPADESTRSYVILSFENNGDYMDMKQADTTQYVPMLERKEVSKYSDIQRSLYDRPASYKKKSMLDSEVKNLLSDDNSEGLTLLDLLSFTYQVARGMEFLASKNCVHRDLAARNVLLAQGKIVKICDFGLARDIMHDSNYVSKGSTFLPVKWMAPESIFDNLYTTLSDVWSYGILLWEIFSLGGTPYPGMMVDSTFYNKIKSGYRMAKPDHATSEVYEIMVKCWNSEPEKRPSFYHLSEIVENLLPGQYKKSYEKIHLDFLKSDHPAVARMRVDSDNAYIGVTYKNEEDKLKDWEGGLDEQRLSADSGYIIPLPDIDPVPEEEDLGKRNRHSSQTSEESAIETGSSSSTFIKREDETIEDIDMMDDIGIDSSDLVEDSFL

[5] = target: T19, TYK2(JH1domain---catalytic) (Homo sapiens, UniProt P29597); test: DiscoveRx KinomeScan binding
T19 construct: TYK2(JH1domain---catalytic); purchased DiscoveRx scanEDGE panel

EGFR(L858R) = target: T20, EGFR(L858R) (Homo sapiens, UniProt P00533, L858R); test: DiscoveRx KinomeScan binding
T20 construct: purchased DiscoveRx scanEDGE panel
T20 sequence (P00533 25-1210 L858R): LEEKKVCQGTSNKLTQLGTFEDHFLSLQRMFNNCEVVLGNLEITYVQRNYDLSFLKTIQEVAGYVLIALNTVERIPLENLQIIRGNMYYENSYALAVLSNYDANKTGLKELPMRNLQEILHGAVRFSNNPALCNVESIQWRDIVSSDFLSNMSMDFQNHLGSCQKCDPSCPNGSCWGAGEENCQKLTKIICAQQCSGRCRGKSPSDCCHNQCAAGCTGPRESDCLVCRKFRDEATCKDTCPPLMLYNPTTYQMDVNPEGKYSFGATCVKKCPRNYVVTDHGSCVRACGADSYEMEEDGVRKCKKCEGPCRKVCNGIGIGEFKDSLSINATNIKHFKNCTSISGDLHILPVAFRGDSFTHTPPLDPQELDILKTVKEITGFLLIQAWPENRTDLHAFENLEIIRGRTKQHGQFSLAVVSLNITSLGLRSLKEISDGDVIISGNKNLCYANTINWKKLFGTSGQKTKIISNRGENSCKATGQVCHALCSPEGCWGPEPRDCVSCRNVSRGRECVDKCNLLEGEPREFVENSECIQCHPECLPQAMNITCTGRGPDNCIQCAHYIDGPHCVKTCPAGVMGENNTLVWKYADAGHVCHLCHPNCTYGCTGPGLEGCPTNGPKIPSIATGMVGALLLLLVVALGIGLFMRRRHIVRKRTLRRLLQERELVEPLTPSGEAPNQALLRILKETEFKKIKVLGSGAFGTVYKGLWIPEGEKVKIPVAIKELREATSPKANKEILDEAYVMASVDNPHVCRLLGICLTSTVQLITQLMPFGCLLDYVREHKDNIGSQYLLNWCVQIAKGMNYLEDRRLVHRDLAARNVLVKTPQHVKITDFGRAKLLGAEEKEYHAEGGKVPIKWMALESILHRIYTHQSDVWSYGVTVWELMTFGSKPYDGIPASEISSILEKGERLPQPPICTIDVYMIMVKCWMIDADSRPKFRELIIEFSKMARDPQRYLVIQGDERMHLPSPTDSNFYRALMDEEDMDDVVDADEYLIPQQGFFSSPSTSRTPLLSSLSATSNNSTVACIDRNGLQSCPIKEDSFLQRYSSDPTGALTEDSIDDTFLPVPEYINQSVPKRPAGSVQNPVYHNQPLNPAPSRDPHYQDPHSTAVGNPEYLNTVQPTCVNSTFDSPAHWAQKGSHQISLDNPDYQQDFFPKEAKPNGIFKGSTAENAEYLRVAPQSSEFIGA

CSF1R = target: T21, CSF1R (Homo sapiens, UniProt P07333); test: DiscoveRx KinomeScan binding
T21 construct: purchased DiscoveRx scanEDGE panel

PLK3 = target: T22, PLK3 (Homo sapiens, UniProt Q9H4B4); test: DiscoveRx KinomeScan binding
T22 construct: purchased DiscoveRx scanEDGE panel

PCTK1 = target: T23, PCTK1 (Homo sapiens, UniProt Q00536); test: DiscoveRx KinomeScan binding; conditions: Entrez CDK16
T23 construct: purchased DiscoveRx scanEDGE panel (KinomeScan)

SRC = target: T24, SRC (Homo sapiens, UniProt P12931); test: DiscoveRx KinomeScan binding
T24 construct: purchased DiscoveRx scanEDGE panel

AURKB = target: T25, AURKB (Homo sapiens, UniProt Q96GD4); test: DiscoveRx KinomeScan binding
T25 construct: purchased DiscoveRx (KINOMEscan scanEDGE panel)
T25 sequence (Q96GD4 whole entry): as the sequence (Q96GD4 whole entry) above

CDK7 = target: T26, CDK7 (Homo sapiens, UniProt P50613); test: DiscoveRx KinomeScan binding
T26 construct: purchased DiscoveRx (KINOMEscan scanEDGE panel)

MARK3 = target: T27, MARK3 (Homo sapiens, UniProt P27448); test: DiscoveRx KinomeScan binding
T27 construct: purchased DiscoveRx scanEDGE panel (KinomeScan)

AURKC = target: T28, AURKC (Homo sapiens, UniProt Q9UQB9); test: DiscoveRx KinomeScan binding
T28 construct: purchased DiscoveRx (KINOMEscan; added to the scanEDGE panel)
T28 sequence (Q9UQB9 whole entry): as the sequence (Q9UQB9 whole entry) above

[6] = target: T29, JAK3(JH1domain---catalytic) (Homo sapiens, UniProt P52333); test: DiscoveRx KinomeScan binding
T29 construct: JAK3(JH1domain---catalytic); purchased DiscoveRx scanEDGE panel

CDK9 = target: T30, CDK9 (Homo sapiens, UniProt P50750); test: DiscoveRx KinomeScan binding
T30 construct: purchased DiscoveRx scanEDGE panel

MKNK1 = target: T31, MKNK1 (Homo sapiens, UniProt Q9BUB5); test: DiscoveRx KinomeScan binding
T31 construct: purchased DiscoveRx scanEDGE panel (KinomeScan)

VEGFR2 = target: T32, VEGFR2 (Homo sapiens, UniProt P35968); test: DiscoveRx KinomeScan binding; conditions: Entrez KDR
T32 construct: purchased DiscoveRx scanEDGE panel

PLK1 = target: T33, PLK1 (Homo sapiens, UniProt P53350); test: DiscoveRx KinomeScan binding
T33 construct: purchased DiscoveRx scanEDGE panel

ACVR1B = target: T34, ACVR1B (Homo sapiens, UniProt P36896); test: DiscoveRx KinomeScan binding
T34 construct: purchased DiscoveRx (KINOMEscan scanEDGE panel)

PIM3 = target: T35, PIM3 (Homo sapiens, UniProt Q86V86); test: DiscoveRx KinomeScan binding
T35 construct: purchased DiscoveRx scanEDGE panel

T1 sequence (O14965 whole entry): as the sequence (O14965 whole entry) above

With `COc1ccc(NC(=O)Nc2ccc3c(c2)C(=O)N([C@@H](C)CO)C[C@H](C)[C@H](CN(C)Cc2ccc4c(c2)OCO4)O3)cc1` [BRD-7880] the “binding to aurora kinase A” value (AURKA) was 25 % of control, the “Percent Control” value (AURKA; AURKA) was 22% and the “Percent Control” value (ERBB2) was 100%. For the same compound, the “Percent Control” value (FAK) was 100%, the “Percent Control” value (FGFR2) was 77% and the “Percent Control” value (MEK1) was 71%. The “Percent Control” value (INSR) was 36%, the “Percent Control” value (KIT) was 77% and the “Percent Control” value (BTK) was 94%. The “Percent Control” value [1] was 44%, the “Percent Control” value (PAK2) was 69% and the pIC50 [2] was 8.15. For the same compound, the pIC50 [3] was 7.92, the pIC50 [4] was 5.67 and the “Percent Control” value (ERBB4) was 97%. For the same compound, the “Percent Control” value (CHEK1) was 100%, the “Percent Control” value (ROCK2) was 100% and the “Percent Control” value (MKNK2) was 77%. The “Percent Control” value (PDGFRA) was 90%, the “Percent Control” value [5] was 87% and the “Percent Control” value (EGFR(L858R)) was 60%. The “Percent Control” value (CSF1R) was 100%, the “Percent Control” value (PLK3) was 48% and the “Percent Control” value (PCTK1) was 95%. For the same compound, the “Percent Control” value (SRC) was 81%, the “binding to aurora kinase B” value (AURKB) was 0.5 % of control and the “Percent Control” value (AURKB; AURKB) was 0.5%. For the same compound, the “Percent Control” value (CDK7) was 77%, the “Percent Control” value (MARK3) was 100% and the “binding to aurora kinase C” value (AURKC) was 3 % of control. The “Percent Control” value (AURKC; AURKC) was 3%, the “Percent Control” value [6] was 66% and the “Percent Control” value (CDK9) was 90%. For the same compound, the “Percent Control” value (MKNK1) was 87%, the “Percent Control” value (VEGFR2) was 100% and the “Percent Control” value (PLK1) was 39%. The “Percent Control” value (ACVR1B) was 84% and the “Percent Control” value (PIM3) was 72%.
